{
  "source": "patent US20010010922A1",
  "about": "“CLONING AND USES OF THE GENETIC LOCUS BCL-6” (priority 1994, published 2001)",
  "key": {"BCL-6 [1]": {"tested_on": "BCL-6", "assay": "MEK-2E mediated degradation of BCL-6 in transfected 293T cells, Western blot", "assay_type": "cell-based", "settings": "293T cells transfected with BCL-6 and MEK-2E; inhibitor 50 μM added 8 hrs after transfection", "method": "(§1) FIGS. 22A-22B MAPK-induced BCL-6 degradation is mediated by the ubiquitin/proteasome pathway. (FIG. 22A) Western blot analysis of BCL-6 proteins in 293T cells transfected with BCL-6 in the absence or presence of co-transfected MEK-2E treated with 0.2% DMSO (lanes 1-3), 50 μM Calpain inhibitor II (lanes 4-6), or 50 μM MG132 (lanes 7-9) (added 8hrs after transfection). (FIG. 22B) 293T cells were transfected with BCL-6, His-Ub, and MEK-2E in the absence (lanes 1-4) or presence of MG132 (lanes 5-8). Cell lysates were immunoprecipitated with anti-BCL-6 antibodies (N-70-6) and the immunoprecipitants were analyzed by 6% SDS-PAGE followed by Western blot analysis using anti-ubiquitin antibodies.\n293T cells, grow in DMEM, 10% FBS, were transfected transiently with various DNA vectors using standard calcium phosphate precipitation methods. […]\n(§2) Total RNA were isolated from cells by using Trizol-reagents (GIBCO-BRL) and equal amounts of RNA were separated on 1% formaldehyde-agarose gel. […] For Ramos cells and their stable transfectants (untreated or treated), equal amounts of protein were analyzed by 8% or 10% SDS-PAGE, and subsequently by Western blot analysis using anti-BCL-6 (N-70-6), anti-ERK2 (C-14) or anti-HA (12CA5) antibodies at 1:3000, 1:1000 or 1:500 dilutions. […]"}, "BCL-6 [2]": {"tested_on": "BCL-6", "assay": "Anti-IgM treatment of Ramos cells, Western blot of BCL-6", "assay_type": "cell-based, human", "settings": "inhibitor 50 μM added 30 min (PD098059) or 1 hr (MG132) before anti-IgM", "method": "FIGS. 23A-23E. BCL-6 is phosphorylated and degraded by antigen receptor signaling in B cells. Ramos cells ([…]) were treated with anti-IgM ([…]) and harvested at different time points after treatment as indicated. (FIG. 23A) (Top three panels) Equal amounts of cell extracts were used for Western blot analysis using anti-BCL-6 (top), or anti-ERK2 (middle) antibodies, and for solid phase ERK2 kinase assays (MBP, bottom); Equal amounts of RNAs (10 μg) were used for Northern blot analysis with BCL-6 or GAPDH probes (bottom). (FIG. 23B) Hyperphosphorylated BCL-6 proteins are more unstable. […] Cell extracts were immunoprecipitated with anti-BCL-6 antibodies and analyzed by SDS-PAGE followed by autoradiography. […] Equal amounts of cell extracts were loaded on 7% (HA-BCL-6 or HA-BCL-6Ala333,343) or 10% SDS-PAGE (HA-BCL-6ZF) and the amount of exogenous BCL-6 proteins were analyzed by Western blot using anti-HA antibodies (12CA5).\nas §2"}, "[3]": {"tested_on": "BCL-6/ubiquitin conjugates", "assay": "In vivo ubiquitination assay in transfected 293T cells (anti-BCL-6 immunoprecipitation, anti-ubiquitin Western blot)", "assay_type": "cell-based", "method": "as §1, with “antibodies. […]” for “antibodies.”\nTherefore, we tested whether MEK-2E mediated degradation of BCL-6 in transfected 293T cells could be inhibited by the proteasome inhibitor Cbz-LLL (MG132) (Kim and Maniatis, 1996; Palombella et al., 1994; Rock et al., 1994). […] Because the addition of multiple ubiquitins to the proteolysis substrate is a key step preceding target degradation by the proteasome, we then tested whether BCL-6/ubiquitin conjugates in vivo could be detected. […] Cell lysates were subjected to immunoprecipitation with anti-BCL-6 antibodies, and the immunoprecipitates were analyzed by Western blotting using anti-ubiquitin antibodies. […]"}},
  "note": "Entries after “also recorded” stand apart in the source; their conditions may differ. Peptide text beside a SMILES is read from it. * marks the point of attachment. Cbz = O=C(OCc1ccccc1)*",
  "data": [
    {"smiles": "CSCC[C@@H](C=O)NC(=O)[C@H](CC(C)C)NC(=O)[C@H](CC(C)C)NC(C)=O", "note": "[calpain inhibitor II] (Ac-Leu-Leu-Met-aldehyde)", "values": [
      {"measurement": "inhibition of MEK-2E mediated BCL-6 degradation", "setting": "BCL-6 [1]", "result": "not"}
    ]},
    {"smiles": "COc1cccc(-c2cc(=O)c3ccccc3o2)c1N", "note": "[PD098059]", "values": [
      {"measurement": "inhibition of anti-IgM-induced BCL-6 degradation", "setting": "BCL-6 [2]", "result": "inhibited; also recorded: prevented"}
    ]},
    {"smiles": "CC(C)C[C@@H](C=O)NC(=O)[C@H](CC(C)C)NC(=O)[C@H](CC(C)C)NC(=O)OCc1ccccc1", "note": "[MG132, N-CBZ-Leu-Leu-Leu-AL] (Cbz-Leu-Leu-Leu-aldehyde)", "values": [
      {"measurement": "inhibition of anti-IgM-induced BCL-6 degradation", "setting": "BCL-6 [2]", "result": "specifically inhibited; also recorded: prevented"},
      {"measurement": "inhibition of MEK-2E mediated BCL-6 degradation", "setting": "BCL-6 [1]", "result": "prevented; also recorded: completely inhibited"},
      {"measurement": "multi-ubiquitinated forms of BCL-6 (BCL-6/ubiquitin conjugates)", "setting": "[3]; 293T cells transfected with BCL-6, His-Ub and MEK-2E, MG132 50 μM (lane 8)", "result": "detectable at high levels"},
      {"measurement": "multi-ubiquitinated forms of BCL-6 (BCL-6/ubiquitin conjugates)", "setting": "[3]; 293T cells transfected with BCL-6 and His-Ub, no MEK-2E, MG132 50 μM (lane 7)", "result": "low levels were detectable"}
    ]}
  ]
}
